Assay results from the supplement of paper PMC13380429.

Experiments:
Details in all cases: 72 h
Caco-2 [1] = assay: cell viability relative to DMSO; higher = less toxic
Calu-3 [2] = assay: as above
HepG2 [3] = assay: as above
U2OS [4] = assay: as above
Caco-2 [5] = assay: relative viability EC50 (midpoint between 100% and the lowest measured viability); higher = less toxic
Calu-3 [6] = assay: as above
HepG2 [7] = assay: as above
U2OS [8] = assay: as above
Caco-2 [9] = assay: drug sensitivity score (DSS) for viability; higher = more toxic; extreme values may be limits of the assay
Calu-3 [10] = assay: as above
HepG2 [11] = assay: as above
U2OS [12] = assay: as above
Vero E6 [13] = assay: cell viability relative to DMSO; higher = less toxic
Vero E6 [14] = assay: drug sensitivity score (DSS) for viability; higher = more toxic; extreme values may be limits of the assay
Vero E6 [15] = assay: relative viability EC50 (midpoint between 100% and the lowest measured viability); higher = less toxic

Structure (SMILES) | cell viability (Caco-2 [1]; 1 nM) [%] | cell viability (Caco-2 [1]; 10 nM) [%] | cell viability (Caco-2 [1]; 100 nM) [%] | cell viability (Caco-2 [1]; 1000 nM) [%] | cell viability (Caco-2 [1]; 10000 nM) [%] | cell viability (Calu-3 [2]; 1 nM) [%] | cell viability (Calu-3 [2]; 10 nM) [%] | cell viability (Calu-3 [2]; 100 nM) [%] | cell viability (Calu-3 [2]; 1000 nM) [%] | cell viability (Calu-3 [2]; 10000 nM) [%] | cell viability (HepG2 [3]; 1 nM) [%] | cell viability (HepG2 [3]; 10 nM) [%] | cell viability (HepG2 [3]; 100 nM) [%] | cell viability (HepG2 [3]; 1000 nM) [%] | cell viability (HepG2 [3]; 10000 nM) [%] | cell viability (U2OS [4]; 1 nM) [%] | cell viability (U2OS [4]; 10 nM) [%] | cell viability (U2OS [4]; 100 nM) [%] | cell viability (U2OS [4]; 1000 nM) [%] | cell viability (U2OS [4]; 10000 nM) [%] | relative viability EC50 (Caco-2 [5]) [µM] | relative viability EC50 (Calu-3 [6]) [µM] | relative viability EC50 (HepG2 [7]) [µM] | relative viability EC50 (U2OS [8]) [µM] | drug sensitivity score (Caco-2 [9]) | drug sensitivity score (Calu-3 [10]) | drug sensitivity score (HepG2 [11]) | drug sensitivity score (U2OS [12]) | cell viability (Vero E6 [13]; 1 nM) [%] | cell viability (Vero E6 [13]; 10 nM) [%] | cell viability (Vero E6 [13]; 100 nM) [%] | cell viability (Vero E6 [13]; 1000 nM) [%] | cell viability (Vero E6 [13]; 10000 nM) [%] | drug sensitivity score (Vero E6 [14]) | relative viability EC50 (Vero E6 [15]) [µM]
CCN(CCCCOC(=O)c1ccc(OC)c(OC)c1)C(C)Cc1ccc(OC)cc1 (configuration not stated) [mebeverine] | 101 | 96.3 | 97.2 | 90.8 | 83.8 | 95.2 | 98.3 | 101 | 100 | 93.8 | 105 | 112 | 100 | 103 | 91.6 | 102 | 99.4 | 99.1 | 102 | 96.3 | > 10 | > 10 | > 10 | > 10 | 0.6 | 0 | 0 | 0 | – | – | – | – | – | – | –
Sc1ncnc2nc[nH]c12 [mercaptopurine] | 110 | 103 | 109 | 77 | 89.6 | 113 | 91 | 94.3 | 90.8 | 106 | 112 | 115 | 107 | 69.7 | 18.8 | 102 | 101 | 93.4 | 71 | 65.1 | > 10 | > 10 | 1.23 | – | 3.1 | 0 | 8.7 | 5.6 | 103 | 104 | 99.5 | 103 | 70.6 | 1.1 | –
COc1ccc(C2=N[C@@H](c3ccc(Cl)cc3)[C@@H](c3ccc(Cl)cc3)N2C(=O)N2CCNC(=O)C2)c(OC(C)C)c1 [nutlin-3] | 94.2 | 92.1 | 92.5 | 97.9 | 89.1 | 91.6 | 98.1 | 89.7 | 92.4 | 108 | 104 | 115 | 109 | 89.7 | 35 | 94.7 | 93.6 | 95.3 | 98.7 | 75.2 | > 10 | > 10 | 1.95 | > 10 | 0 | 0 | 5.3 | 1.1 | 106 | 98.9 | 94.5 | 97.5 | 63.7 | 2.1 | –
CCC(CC)[C@H](NC(C)=O)[C@@H]1[C@H](O)[C@@H](C(=O)O)C[C@H]1NC(=N)N [peramivir] | 98.8 | 101 | 104 | 105 | 102 | 93.3 | 98.3 | 98.1 | 107 | 101 | 110 | 98.6 | 102 | 110 | 98.9 | 103 | 110 | 98.9 | 110 | 104 | > 10 | > 10 | > 10 | > 10 | 0 | 0 | 0 | 0 | – | – | – | – | – | – | –
NNCCc1ccccc1 [phenelzine] | 88.4 | 100 | 93.4 | 92.6 | 75.1 | – | – | – | – | – | 109 | 92.8 | 84.1 | 120 | 91.4 | 98.4 | 98.7 | 94.6 | 99.8 | 95.1 | > 10 | – | > 10 | > 10 | 1.4 | – | 0 | 0 | 105 | 103 | 101 | 90.3 | 98 | 0 | > 10
NC(=O)CN1CC(c2ccccc2)CC1=O (configuration not stated) [phenylpiracetam] | 104 | 103 | 93.1 | 102 | 91.8 | 103 | 97.3 | 99.5 | 98.5 | 91.7 | 112 | 107 | 104 | 94 | 104 | 99.3 | 102 | 98.1 | 102 | 98.1 | > 10 | > 10 | > 10 | > 10 | 0 | 0 | 0 | 0 | – | – | – | – | – | – | –
CC(C)(C)NC(=O)[C@@H]1C[C@@H]2CCCC[C@@H]2CN1C[C@@H](O)[C@H](Cc1ccccc1)NC(=O)[C@H](CC(N)=O)NC(=O)c1ccc2ccccc2n1 [saquinavir] | 101 | 87.9 | 95.7 | 90.4 | 72.4 | 96.8 | 104 | 93.2 | 102 | 109 | 91.8 | 90.1 | 100 | 82.2 | 84.3 | 101 | 101 | 100 | 103 | 89.8 | – | > 10 | > 10 | > 10 | 1.9 | 0 | 1 | 0 | 103 | 101 | 104 | 85.1 | 101 | 0 | > 10
CC1=CC[C@@H](C(C)(C)O)C[C@@H]1O [sobrepin] | 109 | 121 | 94.4 | 103 | 87.9 | – | – | – | – | – | 109 | 99.6 | 114 | 103 | 110 | – | – | – | – | – | > 10 | – | > 10 | – | 0 | – | 0 | – | 98 | 99.7 | 96.3 | 98.1 | 90.7 | 0 | > 10
O=S(=O)(O)Oc1ccc(C(c2ccc(OS(=O)(=O)O)cc2)c2ccccn2)cc1 [sodium-picosulfate] | 88.4 | 102 | 96.3 | 102 | 106 | 87.6 | 95 | 82.2 | 100 | 93.8 | – | – | – | – | – | 102 | 106 | 97.1 | 104 | 99.1 | > 10 | > 10 | – | > 10 | 0 | 0 | – | 0 | – | – | – | – | – | – | –
c1cnc(SCc2cccnc2)nc1 [tasuldine] | 96.5 | 96.9 | 101 | 94.8 | 101 | – | – | – | – | – | 105 | 105 | 105 | 106 | 97.9 | 101 | 96.3 | 101 | 94.3 | 99.9 | > 10 | – | > 10 | > 10 | 0 | – | 0 | 0 | 105 | 98.5 | 96.7 | 102 | 99.7 | 0 | > 10
CC(C)OC(=O)[C@H](C)N[P@](=O)(CO[C@H](C)Cn1cnc2c(N)ncnc21)Oc1ccccc1 [tenofovir-alafenamide] | 99.3 | 100 | 98.2 | 108 | 94.3 | 106 | 97.4 | 112 | 104 | 78.9 | 98.8 | 91.9 | 116 | 89 | 44.6 | 99.4 | 102 | 97.4 | 100 | 95.6 | > 10 | > 10 | 1.75 | > 10 | 0 | 0.5 | 4.8 | 0 | – | – | – | – | – | – | –
S=C(NCCc1ccccn1)Nc1ccc(Br)cn1 [trovirdine] | 94.9 | 91.6 | 98.4 | 90 | 98.1 | 89.2 | 96.2 | 101 | 102 | 108 | 103 | 105 | 102 | 106 | 92.1 | 104 | 100 | 98.4 | 104 | 98.7 | > 10 | > 10 | > 10 | > 10 | 0 | 0 | 0 | 0 | – | – | – | – | – | – | –
CCCC(CCC)C(=O)NCC(N)=O [valrocemide] | 95.6 | 94.1 | 91.5 | 90.9 | 97.6 | – | – | – | – | – | 94.6 | 101 | 95.6 | 102 | 101 | 104 | 101 | 97.7 | 104 | 98.9 | > 10 | – | > 10 | > 10 | 0 | – | 0 | 0 | 97.3 | 104 | 104 | 97.8 | 101 | 0 | > 10
